The values that follow come from patent US6656921B1, “Use of zinc hyaluronate against peptic ulcer” (Richter Gedeon Vegyeszeti Gyar RT., priority 1997, dated 2003).

Marks after values point to notes of the source that are not given here.

Common to all, as to type: in vivo, rat
Data set [1] concerns acidified ethanol induced gastric lesion. Description: Inhibition of acidified-ethanol induced gastric lesions. The note with it: for Inhibition / Lesion length/stomach mm ± S.E.M. / Lesion length/stomach: 30 min before acidified ethanol; for ED50 (dose giving 50% decrease in ulcer index): p.o., 30 min pretreatment. The protocol:
Female RG-Wistar rats weighing between 120-150 g were used. Before experiments animals were fasted for 24 hours but received water ad libitum.
Experiments were carried out according to the technique similar to that described by A. Robert [Gastroenterology 77, […] (1979)].
Acidified ethanol (mixture of 50 ml of abs. ethanol and 1 ml of concentrated HCI) was used as strong irritants. Dose of acidified ethanol was 0.5 ml/100 g body weight with intragastric administration. Test compounds were given orally 30 minutes before the acidified ethanol challenge. When the duration of action of test compound was studied test material was administered 60 or 120 minutes earlier to the irritating effect induced by acidified-ethanol effect. One hour after the acidified ethanol treatment rats were sacrificed by cervical dislocation. Stomachs were removed and opened along the greater curvature and mildly washed down. The longitudinal hemorrhagic lesions were assayed by length.
ED50 value was defined as the dose that gave a 50% decrease in ulcer index.

Data set [2] relates to indomethacin induced gastric lesion. Description: Inhibition of indomethacin induced gastric lesion. The note with it: for Protection of gastric mucosa against indomethacin (in words): rat, in vivo. How it is done: 2. Inhibition of Indomethacin Induced Gastric Lesion Female RG Wistar rats weighing between 120-150 g were used. Before the experiments animals were fasted for 24 hours but received water ad libitum. Test compounds were given orally, 30 minutes later the animals were treated subcutaneously with indomethacin at a dose of 40 mg/kg. Four hours after the irritating indomethacin administration the animals were killed by cervical dislocation. The stomachs were removed, opened along the greater curvature and the hemorrhagic lesions were counted on the glandular stomach.
ED50 value represents the dose which protects the stomach by 50 % from the damaging effect of indomethacin.

The test system of data set [3] is stress-induced gastric lesion. Description: Inhibition of stress (cold-restraint) induced gastric lesions. To be noted: for Lesion score/stomach ± S.E.M.: 30 min before cold-restraint stress, score 0-3; for Inhibition: 30 min before stress; for Protection against cold-restraint induced gastric damage (in words): rat, in vivo. The protocol: Female RG Wistar rats weighing between 120-150 g were used. Before the experiments animals were fasted for 24 hours but received water ad libitum. Experiments were carried out according to the technique similar to that described by Senay et al., (1967). [Proc. Soc. Exp. Biol. Med.124,1221, (1967)].
Test compounds were given orally. 30 minutes later the animals were immobilized in plastic restraint boxes then placed into a refrigerator at 4° C.-8° C. temperature. Four hours later the animals were removed from both the refrigerator and the restraint boxes and one hour later they were sacrificed by cervical dislocation. The stomachs were removed, opened along the greater curvature and hemorrhagic lesions were scored by a zero to 3 scale: stomachs free from any damage were given a score of 0, stomachs with only a few hemorrhagic lesion were given a score of 1, stomachs with more lesion numbers than 10 were given a score of 2, and stomachs with a lot of lesions were characterized with a score of 3.
The ED50 were defined as the dose needed to decrease the score of gastric lesions by 50%.

Data set [4] deals with acidified ethanol induced gastric damage. Description: Effect of L-NAME (endogenous NO) on protection against acidified-ethanol induced gastric damage. The protocol:
To study the mechanism of action of the compound to be tested, the involvement of endogenous NO in the development of acidified-ethanol induced gastric damage was also studied by intraperitoneal administration of L-N^G-nitroarginine methyl ester (L-NAME). L-NAME at a dose of 25 mg/kg was injected 15 minutes before the test compound. In subsequent experiments the test compound (p.o.), L-NAME (25 mg/kg i.p.), L-arginine (400 mg/kg i.v.) were administered 30, 45 or 60 minutes before oral administration of acidified-ethanol.
The connection between the cytoprotective effect of zinc hyaluronate and endogenic NO was studied by using an inhibitor of the nitrogen(II) oxide biosynthesis namely, N^G-nitro-L-arginine methyl ester (L-NAME). Considering that zinc hyaluronate(II) and zinc hyaluronate(M) had shown the same activity in acidified ethanol test, the latter was the only one tested in this experiment.

Data set [5] concerns platelet activating factor (PAF) induced gastric lesion. Description: Inhibition of gastric damage induced by platelet activating factor (PAF). The protocol:
Male, RG-Wistar rats weighing between 200-250 g were used. Before the experiments animals were fasted for 24 hours but received water ad libitum. Experiments were carried out according to the technique similar to that described by Wallace and Whittle (1986). [Br.J.Pharmac., 89,415, (1986)]. Animals were anaesthetized by intraperitoneal administration of urethane at a dose of 1 g/kg in a volume of 10 ml/kg. Femoral vein was then prepared and cannulated for administration of ulcerogenic PAF. After the surgery PAF was infused intravenously at a rate of 0.1 ml/min for ten minutes at a dose of 200 ng/kg/min. Test compounds were given 30 minutes before the PAF challenge. One hour after the infusion of PAF animals were sacrificed by cervical dislocation; their stomachs were removed and opened along the greater curvature. The hemorrhagic erosions were evaluated by a zero to three scoring system.

For data set [6], the system named is acetic acid induced chronic gastric ulcer. The experiment in a line: Inhibition of acetic acid induced chronic gastric ulcer. The note with it: for Ulcerated area mm^2 ± S.E.M.: 1.0 mg/kg p.o. once a day, day 5 to 14 after surgery; for Effect on healing of acetic acid induced chronic ulcer (in words): rat, in vivo. The protocol: Female, RG Wistar rats weighing between 120-150 g were used. Before the surgery animals were deprived of food for 24 hours but received water ad libitum. The chronic gastric ulcer was induced by the injection of 25 μl/animal of 20% (v/v) acetic acid into the gastric wall under light ether anaesthesia according to the method similar to that described by Takagi et al. (1969). The oral treatment with the test compounds was started five days after the surgery and continued in a once-a-day regimen up to the 14th day. The animals were killed on the 15th day and their stomachs were dissected. The severity of ulceration was evaluated by the measurement of the diameter of the ulcers and the area affected was calculated. The healing effect was expressed as differences in percentage between the control and test group values.

Data set [7] deals with gastrointestinal motility. The experiment in a line: Gastrointestinal motility in the charcoal propulsion test. The note with it: 100 mg/kg p.o.; for Propulsion of charcoal suspension mm ± S.E.M.: 30 min before charcoal, 60 min after charcoal. How it is done: Experiments were performed on female, RG-Wistar rats weighing 120-140 g, which were fasted for 24 hours but received water ad libitum.
The experimental procedure was carried out according to the technique similar to that described of P. A. Janssen and A. J. Jageneau [J. Pharm. Pharmacel. 9, 381 (1957)].
Test compounds were given orally at a dose of 100 mg/kg. Control animals received physiological saline solution instead of test compounds. 30 minutes later, the 5% (w/v) charcoal suspension was administered orally at a volume of 0.5 ml/animal. 60 minutes after the charcoal treatment the animals were sacrificed by cervical dislocation. The intestine from pylorus to cecum was removed, its lengths measured along with the distance traversed by the charcoal meal.
Motility was expressed as the ratio of length of charcoal suspension to the length of the whole intestine.

Setting [8] is: 25 mg/kg p.o., 30 min before indomethacin.
[9] abbreviates: L-NAME + zinc chloride, 25 + 25 mg/kg.
The mark [10] stands for this setting: Vehicle + zinc chloride, 0 + 25 mg/kg.
The mark [11] stands for this setting: 100 mg/kg p.o., 30 min before indomethacin.
[12] abbreviates: 100 mg/kg p.o., 30 min before indomethacin 40 mg/kg s.c.
Setting [13] is: 1.0 mg/kg p.o., 30 min before indomethacin.
[14] abbreviates: 1.0 mg/kg p.o., 30 min before indomethacin 40 mg/kg s.c.
[15] abbreviates: 10.0 mg/kg p.o., 30 min before indomethacin.
Setting [16] is: 10.0 mg/kg p.o., 30 min before indomethacin 40 mg/kg s.c.
Setting [17] is: listed as Zink-hyaluronate (III).

Broadly, the Inhibition is how much of the control response was suppressed. Higher therefore signals a strong effect. `[Cl-].[Cl-].[Zn+2]` [Zinc chloride, zinc chloride, reference compound]: the Inhibition in data set [1] (3.2 mg/kg p.o.) stood at 43.7%; in data set [1] (6.4 mg/kg p.o.), 52.0%; in data set [1] (12.8 mg/kg p.o.), 87.0%; in data set [2] (setting [8]) it was 0%; in data set [3] (25 mg/kg p.o.), 40.0%. Moreover, the “Lesion length/stomach mm ± S.E.M.” value worked out at 29.0 ± 4.0 mm in data set [1] (3.2 mg/kg p.o.); 24.7 ± 7.7 mm in data set [1] (6.4 mg/kg p.o.); 6.7 ± 1.6 mm in data set [1] (12.8 mg/kg p.o.); 19.9 ± 5.5 mm in data set [4] (setting [9]); 8.0 ± 2.6 mm in data set [4] (setting [10]). Moreover, the “Lesion number/stomach ± S.E.M.” value in data set [2] (setting [8]) is 15.1 ± 3.7. Also, in data set [2], the “Protection of gastric mucosa against indomethacin (in words)” value is on record as “do not provide any effect”. Also, the “Lesion score/stomach ± S.E.M.” value in data set [3] (25 mg/kg p.o.) is recorded as 0.6 ± 0.2. Further, the “Protection against cold-restraint induced gastric damage (in words)” value in data set [3] is listed as “only slight protective effects”. Further, the “Effect of L-NAME pretreatment on the gastroprotective activity (in words)” value in data set [4] (L-NAME 25 mg/kg) is on record as “not influenced”. Besides, the “Inhibition (compared with the vehicle + vehicle group)” value in data set [4] (setting [9]) stood at 73.2%; in data set [4] (setting [10]), 89.2%.
For sodium hyaluronate [reference compound], the Inhibition in data set [1] (50 mg/kg p.o.) is recorded as 15.6%; in data set [1] (100 mg/kg p.o.) it was 35.9%; in data set [1] (100 mg/kg p.o., listed as sodium hyaluronate), 36%; in data set [5] (100 mg/kg p.o., 30 min before PAF), 0%; in data set [2] (setting [11]), 36.2%; in data set [3] (100 mg/kg p.o.), 40.0%. The “Lesion length/stomach mm ± S.E.M.” value was found to be 65.7 ± 9.8 mm in data set [1] (50 mg/kg p.o.) and 49.9 ± 6.0 mm in data set [1] (100 mg/kg p.o.). In addition, the “Lesion score/stomach ± S.E.M.” value in data set [5] (100 mg/kg p.o., 30 min before PAF infusion, score 0-3) is listed as 2.6 ± 0.2^a; in data set [3] (100 mg/kg p.o.) it was 0.9 ± 0.2. For the same compound, the “Protection against ulcerogenic effect of PAF (in words)” value in data set [5] (rat, in vivo) was “did not show such effect”. Also, the “Lesion number/stomach ± S.E.M.” value in data set [2] (setting [12]) was 14.6 ± 3.3. The “Protection of gastric mucosa against indomethacin (in words)” value in data set [2] was “do not provide any effect”. In addition, the “Protection against cold-restraint induced gastric damage (in words)” value in data set [3] is “only slight protective effects”.
In the case of zinc hyaluronate [Zinc hyaluronate (I)], the Inhibition is reported as 0% in data set [1] (1 mg/kg p.o.); 35.0% in data set [1] (10 mg/kg p.o.); 66.7% in data set [1] (50 mg/kg p.o.); 93.4% in data set [1] (100 mg/kg p.o.); 43.4% in data set [2] (setting [13]); 55.4% in data set [2] (setting [15]). The compound further had an Inhibition in data set [2] (setting [11]) of 90.4%. Besides, the Lesion length/stomach was 95.3 ± 14.8 in data set [1] (1 mg/kg p.o.), 53.6 ± 7.3 in data set [1] (10 mg/kg p.o.), 27.4 ± 7.6 in data set [1] (50 mg/kg p.o.) and 5.4 ± 2.0 in data set [1] (100 mg/kg p.o.). Besides, in data set [1], the “ED50 (dose giving 50% decrease in ulcer index)” value stood at 15.9 mg/kg. Besides, the “Lesion number/stomach ± S.E.M.” value in data set [2] (setting [14]) was 4.7 ± 2.1; in data set [2] (setting [16]), 3.7 ± 1.9; in data set [2] (setting [12]), 0.8 ± 0.4. The “Ulcerated area mm^2 ± S.E.M.” value in data set [6] was 10.0 ± 2.3 mm^2. In addition, the “Effect on healing of acetic acid induced chronic ulcer (in words)” value in data set [6] was “Neither zinc hyaluronate(I), nor zinc hyaluronate(III) had any effect”. For the same compound, the “Effect on the intestinal motility (in words)” value in data set [7] is recorded as “absence of change in activity”. The “Propulsion of charcoal suspension mm ± S.E.M.” value in data set [7] (listed as Zink-hyaluronate (I)) came to 718 ± 5.6 mm. Moreover, in data set [7] (listed as Zink-hyaluronate (I)), the “Ratio of charcoal suspension to the whole intestinal part” value is recorded as 0.79 ± 0.07.
“zinc hyaluronate [Zinc hyaluronate (III)]”: the Inhibition in data set [1] (10 mg/kg p.o.) came to 0%; in data set [1] (25 mg/kg p.o.), 37.0%; in data set [1] (50 mg/kg p.o.), 78.5%; in data set [1] (100 mg/kg p.o.) it was 85.7%; in data set [2] (setting [13]), 7.6%; in data set [2] (setting [15]), 57.6%. Moreover, the Inhibition in data set [2] (setting [11]) was 83.7%. Moreover, the “Lesion length/stomach mm ± S.E.M.” value is listed as 98.4 ± 12.7 mm in data set [1] (10 mg/kg p.o.), 43.7 ± 7.7 mm in data set [1] (25 mg/kg p.o.), 14.9 ± 4.5 mm in data set [1] (50 mg/kg p.o.) and 9.9 ± 3.5 mm in data set [1] (100 mg/kg p.o.). Moreover, in data set [1], the “ED50 (dose giving 50% decrease in ulcer index)” value is 33.2 mg/kg. The “Lesion number/stomach ± S.E.M.” value in data set [2] (setting [14]) turned out to be 17.0 ± 4.5; in data set [2] (setting [16]), 7.9 ± 2.5; in data set [2] (setting [12]), 3.0 ± 1.4. Besides, the “Ulcerated area mm^2 ± S.E.M.” value in data set [6] was 6.8 ± 0.8 mm^2. The “Effect on healing of acetic acid induced chronic ulcer (in words)” value in data set [6] is listed as “Neither zinc hyaluronate(I), nor zinc hyaluronate(III) had any effect”. For the same compound, in data set [7] (setting [17]), the “Propulsion of charcoal suspension mm ± S.E.M.” value came out at 68 ± 2.5 mm. For the same compound, in data set [7] (setting [17]), the “Ratio of charcoal suspension to the whole intestinal part” value is reported as 0.89 ± 0.03.
